Laboratory results from US20240382629A1, “HETEROBIVALENT AND HOMOBIVALENT AGENTS TARGETING FIBROBLAST ACTIVATION PROTEIN ALPHA AND/OR PROSTATE-SPECIFIC MEMBRANE ANTIGEN” (The Johns Hopkins University, priority 2021, published 2024).
Where “and” joins values, the source holds several entries; their conditions need not be identical. Equal values may be shown once.

Test: Biodistribution of [^18F]JHU1221785 with cold FAPI-04 blocker
Format: in vivo, mouse
Details: for % ID/g Bladder / % ID/g Blood / % ID/g Brain / % ID/g Fat / % ID/g Heart / % ID/g Kidney / % ID/g Large intestine / % ID/g Lung / % ID/g Muscle / % ID/g Pancreas / % ID/g Salivary gland / % ID/g Small intestine / % ID/g Spleen / % ID/g Stomach / % ID/g Tumor: single mouse
[1] = + Blocker Cold FAPI-04 (10 nmole), 60 min

Question: Which “% ID/g Mean Bladder” value (30 min) does the source give for `N#C[C@@H]1CCCN1C(=O)CNC(=O)c1ccnc2ccc(OCCCNC(=O)[C@@H](CC(=O)O)NC(=O)[C@@H](CC(=O)O)NC(=O)c3ccc([18F])nc3)cc12` [[^18F]JHU1221785] here?
Answer: 2.81 % ID/g

Question: What about the “% ID/g Bladder” value (30 min) of the same compound?
Answer: 0.93 % ID/g and 4.69 % ID/g

Question: And the “% ID/g Mean Bladder” value (60 min)?
Answer: 0.84 % ID/g

Question: And the “% ID/g Bladder” value (60 min)?
Answer: 0.76 % ID/g and 0.92 % ID/g

Question: What about the “% ID/g Mean Bladder” value [1] of the same compound?
Answer: 0.45 % ID/g

Question: And the “% ID/g Bladder” value [1]?
Answer: 0.23 % ID/g and 0.67 % ID/g

Question: What about the “% ID/g Mean Blood” value (30 min) of the same compound?
Answer: 4.94 % ID/g

Question: What about the “% ID/g Blood” value (30 min) of the same compound?
Answer: 5.98 % ID/g and 3.90 % ID/g

Question: And the “% ID/g Mean Blood” value (60 min)?
Answer: 3.57 % ID/g

Question: What about the “% ID/g Blood” value (60 min) of the same compound?
Answer: 2.56 % ID/g and 4.57 % ID/g

Question: And the “% ID/g Mean Blood” value [1]?
Answer: 4.68 % ID/g

Question: And the “% ID/g Blood” value [1]?
Answer: 0.11 % ID/g and 9.26 % ID/g

Question: And the “% ID/g Mean Brain” value (30 min)?
Answer: 0.14 % ID/g

Question: And the “% ID/g Brain” value (30 min)?
Answer: 0.14 % ID/g and 0.15 % ID/g

Question: What about the “% ID/g Mean Brain” value (60 min) of the same compound?
Answer: 0.10 % ID/g

Question: What about the “% ID/g Brain” value (60 min) of the same compound?
Answer: 0.09 % ID/g and 0.12 % ID/g

Question: What about the “% ID/g Mean Brain” value [1] of the same compound?
Answer: 0.03 % ID/g

Question: What about the “% ID/g Brain” value [1] of the same compound?
Answer: 0.02 % ID/g and 0.04 % ID/g

Question: And the “% ID/g Mean Fat” value (30 min)?
Answer: 0.20 % ID/g

Question: What about the “% ID/g Fat” value (30 min) of the same compound?
Answer: 0.21 % ID/g and 0.19 % ID/g

Question: And the “% ID/g Mean Fat” value (60 min)?
Answer: 0.22 % ID/g

Question: And the “% ID/g Fat” value (60 min)?
Answer: 0.22 % ID/g and 0.21 % ID/g

Question: And the “% ID/g Mean Fat” value [1]?
Answer: 0.12 % ID/g

Question: What about the “% ID/g Fat” value [1] of the same compound?
Answer: 0.03 % ID/g and 0.21 % ID/g

Question: And the “% ID/g Mean Femur” value (30 min)?
Answer: 2.61 % ID/g

Question: And the “% ID/g Mean Femur” value (60 min)?
Answer: 2.07 % ID/g

Question: What about the “% ID/g Mean Femur” value [1] of the same compound?
Answer: 1.51 % ID/g

Question: And the “% ID/g Mean Heart” value (30 min)?
Answer: 2.26 % ID/g

Question: What about the “% ID/g Heart” value (30 min) of the same compound?
Answer: 2.51 % ID/g and 2.01 % ID/g

Question: And the “% ID/g Mean Heart” value (60 min)?
Answer: 1.56 % ID/g

Question: And the “% ID/g Heart” value (60 min)?
Answer: 1.38 % ID/g and 1.73 % ID/g

Question: And the “% ID/g Mean Heart” value [1]?
Answer: 0.07 % ID/g

Question: What about the “% ID/g Heart” value [1] of the same compound?
Answer: 0.06 % ID/g and 0.07 % ID/g

Question: And the “% ID/g Mean Kidney” value (30 min)?
Answer: 2.47 % ID/g

Question: What about the “% ID/g Kidney” value (30 min) of the same compound?
Answer: 1.60 % ID/g and 3.33 % ID/g

Question: And the “% ID/g Mean Kidney” value (60 min)?
Answer: 0.91 % ID/g

Question: What about the “% ID/g Kidney” value (60 min) of the same compound?
Answer: 0.79 % ID/g and 1.04 % ID/g

Question: What about the “% ID/g Mean Kidney” value [1] of the same compound?
Answer: 0.46 % ID/g

Question: What about the “% ID/g Kidney” value [1] of the same compound?
Answer: 0.41 % ID/g and 0.51 % ID/g

Question: And the “% ID/g Mean Large intestine” value (30 min)?
Answer: 0.72 % ID/g

Question: And the “% ID/g Large intestine” value (30 min)?
Answer: 0.58 % ID/g and 0.86 % ID/g

Question: And the “% ID/g Mean Large intestine” value (60 min)?
Answer: 0.69 % ID/g

Question: What about the “% ID/g Large intestine” value (60 min) of the same compound?
Answer: 0.61 % ID/g and 0.78 % ID/g

Question: What about the “% ID/g Mean Large intestine” value [1] of the same compound?
Answer: 0.20 % ID/g

Question: What about the “% ID/g Large intestine” value [1] of the same compound?
Answer: 0.08 % ID/g and 0.33 % ID/g

Question: And the “% ID/g Mean Liver” value (30 min)?
Answer: 7.32 % ID/g

Question: What about the “% ID/g Mean Liver” value (60 min) of the same compound?
Answer: 7.84 % ID/g

Question: And the “% ID/g Mean Liver” value [1]?
Answer: 9.89 % ID/g

Question: What about the “% ID/g Mean Lung” value (30 min) of the same compound?
Answer: 2.65 % ID/g

Question: And the “% ID/g Lung” value (30 min)?
Answer: 2.77 % ID/g and 2.53 % ID/g

Question: And the “% ID/g Mean Lung” value (60 min)?
Answer: 2.18 % ID/g

Question: And the “% ID/g Lung” value (60 min)?
Answer: 1.70 % ID/g and 2.65 % ID/g

Question: And the “% ID/g Mean Lung” value [1]?
Answer: 0.17 % ID/g

Question: What about the “% ID/g Lung” value [1] of the same compound?
Answer: 0.13 % ID/g and 0.20 % ID/g

Question: And the “% ID/g Mean Muscle” value (30 min)?
Answer: 0.96 % ID/g

Question: What about the “% ID/g Muscle” value (30 min) of the same compound?
Answer: 0.81 % ID/g and 1.12 % ID/g

Question: And the “% ID/g Mean Muscle” value (60 min)?
Answer: 0.98 % ID/g

Question: And the “% ID/g Muscle” value (60 min)?
Answer: 1.06 % ID/g and 0.89 % ID/g

Question: And the “% ID/g Mean Muscle” value [1]?
Answer: 0.06 % ID/g

Question: And the “% ID/g Muscle” value [1]?
Answer: 0.04 % ID/g and 0.07 % ID/g

Question: And the “% ID/g Mean Pancreas” value (30 min)?
Answer: 2.31 % ID/g

Question: And the “% ID/g Pancreas” value (30 min)?
Answer: 1.92 % ID/g and 2.71 % ID/g

Question: What about the “% ID/g Mean Pancreas” value (60 min) of the same compound?
Answer: 2.07 % ID/g

Question: And the “% ID/g Pancreas” value (60 min)?
Answer: 1.96 % ID/g and 2.17 % ID/g

Question: And the “% ID/g Mean Pancreas” value [1]?
Answer: 0.13 % ID/g

Question: And the “% ID/g Pancreas” value [1]?
Answer: 0.05 % ID/g and 0.22 % ID/g

Question: And the “% ID/g Mean Salivary gland” value (30 min)?
Answer: 2.93 % ID/g

Question: And the “% ID/g Salivary gland” value (30 min)?
Answer: 2.81 % ID/g and 3.05 % ID/g

Question: What about the “% ID/g Mean Salivary gland” value (60 min) of the same compound?
Answer: 3.45 % ID/g

Question: And the “% ID/g Salivary gland” value (60 min)?
Answer: 2.17 % ID/g and 4.73 % ID/g

Question: What about the “% ID/g Mean Salivary gland” value [1] of the same compound?
Answer: 0.05 % ID/g

Question: What about the “% ID/g Salivary gland” value [1] of the same compound?
Answer: 0.04 % ID/g and 0.06 % ID/g

Question: What about the “% ID/g Mean Small intestine” value (30 min) of the same compound?
Answer: 2.49 % ID/g

Question: What about the “% ID/g Small intestine” value (30 min) of the same compound?
Answer: 2.60 % ID/g and 2.38 % ID/g

Question: What about the “% ID/g Mean Small intestine” value (60 min) of the same compound?
Answer: 1.83 % ID/g

Question: And the “% ID/g Small intestine” value (60 min)?
Answer: 1.65 % ID/g and 2.01 % ID/g

Question: And the “% ID/g Mean Small intestine” value [1]?
Answer: 3.54 % ID/g

Question: What about the “% ID/g Small intestine” value [1] of the same compound?
Answer: 0.88 % ID/g and 6.19 % ID/g

Question: And the “% ID/g Mean Spleen” value (30 min)?
Answer: 1.00 % ID/g

Question: And the “% ID/g Spleen” value (30 min)?
Answer: 1.03 % ID/g and 0.97 % ID/g

Question: And the “% ID/g Mean Spleen” value (60 min)?
Answer: 0.93 % ID/g

Question: And the “% ID/g Spleen” value (60 min)?
Answer: 0.78 % ID/g and 1.09 % ID/g

Question: What about the “% ID/g Mean Spleen” value [1] of the same compound?
Answer: 0.16 % ID/g

Question: What about the “% ID/g Spleen” value [1] of the same compound?
Answer: 0.08 % ID/g and 0.25 % ID/g

Question: What about the “% ID/g Mean Stomach” value (30 min) of the same compound?
Answer: 0.82 % ID/g

Question: What about the “% ID/g Stomach” value (30 min) of the same compound?
Answer: 0.72 % ID/g and 0.92 % ID/g

Question: What about the “% ID/g Mean Stomach” value (60 min) of the same compound?
Answer: 0.71 % ID/g

Question: What about the “% ID/g Stomach” value (60 min) of the same compound?
Answer: 0.60 % ID/g and 0.81 % ID/g

Question: And the “% ID/g Mean Stomach” value [1]?
Answer: 0.16 % ID/g

Question: And the “% ID/g Stomach” value [1]?
Answer: 0.09 % ID/g and 0.23 % ID/g

Question: What about the “% ID/g Mean Tumor” value (30 min) of the same compound?
Answer: 1.24 % ID/g

Question: What about the “% ID/g Tumor” value (30 min) of the same compound?
Answer: 1.14 % ID/g and 1.34 % ID/g

Question: What about the “% ID/g Mean Tumor” value (60 min) of the same compound?
Answer: 2.23 % ID/g

Question: What about the “% ID/g Tumor” value (60 min) of the same compound?
Answer: 2.59 % ID/g and 1.47 % ID/g

Question: What about the “% ID/g Mean Tumor” value [1] of the same compound?
Answer: 0.10 % ID/g

Question: What about the “% ID/g Tumor” value [1] of the same compound?
Answer: 0.08 % ID/g and 0.11 % ID/g
